Measurements published in PubChem BioAssay (NCI).
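96-well plates; 48 h exposure; 5 concentrations. Endpoints by linear interpolation between flanking doses. Not reached: highest tested concentration assigned. GI50: concentration for 50% inhibition of growth. Definition used: TGI = concentration required for complete inhibition of growth.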

Tests used:
Experiment in all cases: inhibition of tumour cell growth, NCI panel, 48 h
A498 renal = test system: A498 renal
RPMI-8226 leukemia = test system: RPMI-8226 leukemia
K-562 leukemia = test system: K-562 leukemia
MALME-3M melanoma = test system: MALME-3M melanoma
UACC-62 melanoma = test system: UACC-62 melanoma
SNB-75 CNS = test system: SNB-75 CNS
HCT-15 colon = test system: HCT-15 colon
SF-295 CNS = test system: SF-295 CNS
HT29 colon = test system: HT29 colon
MDA-MB-231 breast = test system: MDA-MB-231 breast
CAKI-1 renal = test system: CAKI-1 renal
HOP-62 NSCLC = test system: HOP-62 NSCLC
OVCAR-3 ovarian = test system: OVCAR-3 ovarian
UO-31 renal = test system: UO-31 renal
U251 CNS = test system: U251 CNS
IGROV1 ovarian = test system: IGROV1 ovarian
SK-OV-3 ovarian = test system: SK-OV-3 ovarian
SK-MEL-28 melanoma = test system: SK-MEL-28 melanoma
COLO 205 colon = test system: COLO 205 colon
EKVX NSCLC = test system: EKVX NSCLC
ACHN renal = test system: ACHN renal
HCT-116 colon = test system: HCT-116 colon
BT-549 breast = test system: BT-549 breast
786-0 renal = test system: 786-0 renal
NCI-H226 lung = test system: NCI-H226 lung
OVCAR-8 ovarian = test system: OVCAR-8 ovarian
KM12 colon = test system: KM12 colon
NCI-H460 lung = test system: NCI-H460 lung
OVCAR-5 ovarian = test system: OVCAR-5 ovarian
DU-145 prostate = test system: DU-145 prostate
M14 melanoma = test system: M14 melanoma
SK-MEL-2 melanoma = test system: SK-MEL-2 melanoma
PC-3 prostate = test system: PC-3 prostate
TK-10 renal = test system: TK-10 renal
RXF 393 renal = test system: RXF 393 renal
MDA-MB-435 = test system: MDA-MB-435
MCF7 breast = test system: MCF7 breast
SF-539 CNS = test system: SF-539 CNS
SW-620 colon = test system: SW-620 colon
T-47D breast = test system: T-47D breast
HS 578T breast = test system: HS 578T breast
CCRF-CEM leukemia = test system: CCRF-CEM leukemia
SF-268 CNS = test system: SF-268 CNS
MOLT-4 leukemia = test system: MOLT-4 leukemia
SNB-19 CNS = test system: SNB-19 CNS
HOP-92 NSCLC = test system: HOP-92 NSCLC
OVCAR-4 ovarian = test system: OVCAR-4 ovarian
SN12C renal = test system: SN12C renal
A549 NSCLC = test system: A549 NSCLC
UACC-257 melanoma = test system: UACC-257 melanoma
SK-MEL-5 melanoma = test system: SK-MEL-5 melanoma
SR leukemia = test system: SR leukemia
NCI-H522 lung = test system: NCI-H522 lung

In the case of `CCN(CC)Cc1cc(Nc2c3ccccc3nc3cc(Cl)ccc23)ccc1O`, the GI50 (A498 renal) is reported as 1730 nM, the TGI (A498 renal) is reported as 3290 nM and the GI50 (RPMI-8226 leukemia) is reported as 2320 nM. The TGI (RPMI-8226 leukemia) was 6270 nM, the GI50 (K-562 leukemia) was 1690 nM and the TGI (K-562 leukemia) was 39000 nM. It also gave a GI50 (MALME-3M melanoma) of 1940 nM, a TGI (MALME-3M melanoma) of 3580 nM and a GI50 (UACC-62 melanoma) of 2100 nM. For the same molecule, the TGI (UACC-62 melanoma) was 4000 nM, the GI50 (SNB-75 CNS) was 1600 nM and the TGI (SNB-75 CNS) was 2970 nM. The GI50 (HCT-15 colon) was 3490 nM, the TGI (HCT-15 colon) was 17000 nM and the GI50 (SF-295 CNS) was 1900 nM. The TGI (SF-295 CNS) was 4860 nM, the GI50 (HT29 colon) was 487 nM and the TGI (HT29 colon) was 1750 nM. For the same molecule, the GI50 (MDA-MB-231 breast) was 1730 nM, the TGI (MDA-MB-231 breast) was 3590 nM and the GI50 (CAKI-1 renal) was 1870 nM. The TGI (CAKI-1 renal) was 4730 nM, the GI50 (HOP-62 NSCLC) was 1730 nM and the TGI (HOP-62 NSCLC) was 3160 nM. For the same molecule, the GI50 (OVCAR-3 ovarian) was 1740 nM, the TGI (OVCAR-3 ovarian) was 3280 nM and the GI50 (UO-31 renal) was 1340 nM. For the same molecule, the TGI (UO-31 renal) was 2640 nM, the GI50 (U251 CNS) was 1390 nM and the TGI (U251 CNS) was 2890 nM. For the same molecule, the GI50 (IGROV1 ovarian) was 1650 nM, the TGI (IGROV1 ovarian) was 3550 nM and the GI50 (SK-OV-3 ovarian) was 2010 nM. It also gave a TGI (SK-OV-3 ovarian) of 3860 nM, a GI50 (SK-MEL-28 melanoma) of 1790 nM and a TGI (SK-MEL-28 melanoma) of 3200 nM. The GI50 (COLO 205 colon) was 1050 nM, the TGI (COLO 205 colon) was 2300 nM and the GI50 (EKVX NSCLC) was 2260 nM. For the same molecule, the TGI (EKVX NSCLC) was 5990 nM, the GI50 (ACHN renal) was 1470 nM and the TGI (ACHN renal) was 2970 nM. It also gave a GI50 (HCT-116 colon) of 967 nM, a TGI (HCT-116 colon) of 2670 nM and a GI50 (BT-549 breast) of 1950 nM. The TGI (BT-549 breast) was 3480 nM, the GI50 (786-0 renal) was 1210 nM and the TGI (786-0 renal) was 2460 nM. For the same molecule, the GI50 (NCI-H226 lung) was 1660 nM, the TGI (NCI-H226 lung) was 3230 nM and the GI50 (OVCAR-8 ovarian) was 1180 nM. For the same molecule, the TGI (OVCAR-8 ovarian) was 3830 nM, the GI50 (KM12 colon) was 1590 nM and the TGI (KM12 colon) was 3770 nM. For the same molecule, the GI50 (NCI-H460 lung) was 1620 nM, the TGI (NCI-H460 lung) was 4800 nM and the GI50 (OVCAR-5 ovarian) was 2420 nM. For the same molecule, the TGI (OVCAR-5 ovarian) was 6660 nM, the GI50 (DU-145 prostate) was 2630 nM and the TGI (DU-145 prostate) was 9690 nM. The GI50 (M14 melanoma) was 1760 nM, the TGI (M14 melanoma) was 3180 nM and the GI50 (SK-MEL-2 melanoma) was 1750 nM. It also gave a TGI (SK-MEL-2 melanoma) of 3360 nM, a GI50 (PC-3 prostate) of 1590 nM and a TGI (PC-3 prostate) of 3260 nM. For the same molecule, the GI50 (TK-10 renal) was 1640 nM, the TGI (TK-10 renal) was 3230 nM and the GI50 (RXF 393 renal) was 1280 nM. It also gave a TGI (RXF 393 renal) of 2580 nM, a GI50 (MDA-MB-435) of 1650 nM and a TGI (MDA-MB-435) of 3340 nM. It also gave a GI50 (MCF7 breast) of 960 nM, a TGI (MCF7 breast) of 2460 nM and a GI50 (SF-539 CNS) of 2190 nM. For the same molecule, the TGI (SF-539 CNS) was 4580 nM, the GI50 (SW-620 colon) was 1180 nM and the TGI (SW-620 colon) was 3630 nM. The GI50 (T-47D breast) was 1970 nM, the TGI (T-47D breast) was 4000 nM and the GI50 (HS 578T breast) was 2260 nM. The TGI (HS 578T breast) was 6240 nM, the GI50 (CCRF-CEM leukemia) was 2590 nM and the TGI (CCRF-CEM leukemia) was greater than 100000 nM. The GI50 (SF-268 CNS) was 1630 nM, the TGI (SF-268 CNS) was 3130 nM and the GI50 (MOLT-4 leukemia) was 2010 nM. It also gave a TGI (MOLT-4 leukemia) of 53500 nM, a GI50 (SNB-19 CNS) of 2040 nM and a TGI (SNB-19 CNS) of 5270 nM. For the same molecule, the GI50 (HOP-92 NSCLC) was 1410 nM, the TGI (HOP-92 NSCLC) was 3130 nM and the GI50 (OVCAR-4 ovarian) was 1180 nM. The TGI (OVCAR-4 ovarian) was 2430 nM, the GI50 (SN12C renal) was 1050 nM and the TGI (SN12C renal) was 2670 nM. For the same molecule, the GI50 (A549 NSCLC) was 1360 nM, the TGI (A549 NSCLC) was 4260 nM and the GI50 (UACC-257 melanoma) was 1900 nM. For the same molecule, the TGI (UACC-257 melanoma) was 3410 nM, the GI50 (SK-MEL-5 melanoma) was 1750 nM and the TGI (SK-MEL-5 melanoma) was 3160 nM. It also gave a GI50 (SR leukemia) of 3080 nM, a TGI (SR leukemia) greater than 100000 nM and a GI50 (NCI-H522 lung) of 1120 nM. The TGI (NCI-H522 lung) was 2560 nM.
